Measurements taken from paper PMC5383040, “Inhibition of prenylated KRAS in a lipid environment” (PLoS ONE, 2017).
Read-outs that look alike come from different tables or passages of the source.

Key:
[1] = biological target: T1, GTPγS-loaded, prenylated KRAS^G12V (Homo sapiens, UniProt P01116, G12V); experiment: Coupled KRAS-BRAF-MEK assay (BRAF activation by KRAS, AlphaScreen pMEK readout); type: biochemical
T1 construct: made in house; host or cells: insect cells (Sf9, Sf21 or Tn5), baculovirus

full length BRAF^V600E = biological target: T2, full length BRAF^V600E (Homo sapiens, UniProt P15056, V600E); experiment: BRAF^V600E counter-screen (coupled assay lacking KRAS); type: biochemical
T2 construct: made in house; host or cells: insect cells (Sf9, Sf21 or Tn5), baculovirus pBlueBac4.5
T2 sequence (P15056 whole entry V600E): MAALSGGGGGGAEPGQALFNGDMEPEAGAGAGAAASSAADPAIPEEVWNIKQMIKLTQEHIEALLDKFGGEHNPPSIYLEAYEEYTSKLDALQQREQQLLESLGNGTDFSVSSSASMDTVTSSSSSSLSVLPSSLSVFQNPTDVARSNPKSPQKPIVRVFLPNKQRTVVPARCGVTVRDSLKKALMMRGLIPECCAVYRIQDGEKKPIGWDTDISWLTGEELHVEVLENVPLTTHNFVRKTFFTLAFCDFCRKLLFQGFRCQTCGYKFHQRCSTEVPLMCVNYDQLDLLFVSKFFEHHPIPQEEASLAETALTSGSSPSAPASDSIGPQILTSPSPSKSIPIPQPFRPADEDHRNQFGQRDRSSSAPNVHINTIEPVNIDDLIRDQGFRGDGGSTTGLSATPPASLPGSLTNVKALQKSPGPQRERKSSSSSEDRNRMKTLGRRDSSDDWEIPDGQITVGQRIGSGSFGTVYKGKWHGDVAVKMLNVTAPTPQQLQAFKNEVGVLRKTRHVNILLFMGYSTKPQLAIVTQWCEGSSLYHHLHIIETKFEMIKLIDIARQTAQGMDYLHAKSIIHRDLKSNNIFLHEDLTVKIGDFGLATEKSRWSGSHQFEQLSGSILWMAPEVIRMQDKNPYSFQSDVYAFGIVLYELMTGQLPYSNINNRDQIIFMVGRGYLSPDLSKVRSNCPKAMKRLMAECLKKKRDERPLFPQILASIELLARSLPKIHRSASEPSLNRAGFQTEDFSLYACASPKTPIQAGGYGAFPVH
Method: An assay consisting of full length BRAF^V600E was used to flag inhibitors acting directly on BRAF, taking advantage of the constitutive activity of the BRAF mutant. […] The counter assay buffer, other components and order of addition matched the RAS-dependent assay except for the presence of KRAS. This assay was reproducible from run to run. […] After establishing reproducibility with this compound, all other compounds were measured with N≥2.

SW1990 cells = experiment: Proliferation assay (CellTiter-Glo); type: cell-based; settings: Homo sapiens, 120 h, 5 days, read-out: Growth inhibition EC50
Method: Cells were seeded in 384-well plates and incubated with a 1:3 serial dilution of compound starting from 30 μM at 37°C with 5% CO2 for 5 days. Cell viability was measured using the CellTiter-Glo® Luminescent Cell Viability Assay kit (Promega) and read on an Envision (Perkin Elmer) plate reader. Percent growth inhibition was calculated by normalizing treatment to DMSO control. […] For every compound, each concentration was run in triplicate and all points were used for fitting a single curve.

SW1990 cells (KRAS^G12D) = experiment: Western blot analysis of pAKT and pERK in SW1990; type: cell-based, human; settings: 3hrs treatment, dose-response
Method: (§1) Cells were seeded in 6-well plates and treated with compounds or DMSO at the indicated concentrations for 3hrs. Total cell lysates were prepared in either M-PER (Pierce) or RIPA lysis buffer (50 mM Tris-HCl, pH 8.0, 150 mM NaCl, 0.5% NP-40, 0.5% sodium deoxycholate) supplemented with 1x protease inhibitor cocktail (Sigma) and 1x phosphatase inhibitor cocktails (Sigma). Lysates were normalized for protein concentration, resolved by SDS-PAGE, transferred onto nitrocellulose membranes and probed with the indicated antibodies.

[2] = biological target: T3, prenylated KRAS^G12V loaded with GTPγS (Homo sapiens, UniProt P01116, G12V); experiment: Biolayer interferometry (BLI) binding to full-length prenylated KRAS in PS; settings: for binding in BLI studies: at 10 μM, full-length prenylated KRAS in PS
T3 construct: Avi-tag-(Gly)8 –KRAS^G12V (2–188) was cloned into the pFastBac1 vector; made in house; host or cells: Tn5 insect cells, co-infected with BirA virus
Method: Determination of Kds was performed on the Octet RED platform, according to the manufacturer's recommendations in their application note on small molecule analysis. The prenylated KRAS peptide containing the farnesyl group attached to the terminal cysteine (biotin-[sequence](farnesyl)-OCH3) was obtained from AnaSpec (Fremont, California). […] After incubation for 1h at RT, the protein was loaded into a 96-well plate (Greiner 655209), and loaded a BLI response of 3-4nm. […] A reference sensor was run to remove systematic drift, and a second set of SuperStreptavidin biosensors blocked with biocytin was examined to remove systematic optical interferences, and to check for non-specific binding of compounds to the biosensor. Kds were determined using the ForteBio analysis software tool, which determines Kd from the steady-state plot, or from the determination of the kinetic constants kon and koff.

[3] = biological target: T4, 18-residue KRAS C-terminal prenylated peptide (Homo sapiens, UniProt P01116); experiment: BLI with KRAS C-terminal prenylated peptide in PS; type: binding
T4 construct: (biotin-[…](farnesyl)-OCH3) was obtained from AnaSpec (Fremont, California); purchased AnaSpec (Fremont, California); host or cells: synthetic peptide
Method: Determination of Kds was performed on the Octet RED platform, according to the manufacturer's recommendations in their application note on small molecule analysis. The prenylated KRAS peptide containing the farnesyl group attached to the terminal cysteine (biotin-[…](farnesyl)-OCH3) was obtained from AnaSpec (Fremont, California). Proteins were obtained as described above. The assay buffer was 25mM Tris containing 190mM glycine, 5mM MgCl2, 0.01% Triton X-100, 1mM DTT and 1.3uM PS (liposome preparation as described above). The protein was attached to SuperStreptavidin biosensors (ForteBio 18–5057) via Avi-tagged-KRAS G12V:GTPγS with C-terminal prenylgroup by adding 2μL of the 5mg/mL solution of PS to 2mL of assay buffer, followed by the KRAS protein to a final concentration of 40nM. After incubation for 1h at RT, the protein was loaded into a 96-well plate (Greiner 655209), and loaded a BLI response of 3-4nm. […] Kds were determined using the ForteBio analysis software tool, which determines Kd from the steady-state plot, or from the determination of the kinetic constants kon and koff. […] After establishing reproducibility with compound 3, all other compounds were measured in singleton.

[4] = biological target: truncated GDP-loaded KRAS; settings: cited from earlier work
[5] = parameters: method as in PMID 22431598; settings: cited from earlier work
A375 cells (BRAF^V600E) = experiment: Western blot analysis of pAKT and pERK in A375; type: cell-based; settings: 3hrs treatment
Method: as §1

KRAS construct 1–180 = biological target: T5, KRAS construct 1–180 (Homo sapiens, UniProt P01116, G12V); experiment: BLI control with KRAS construct lacking the C-terminus; type: binding; settings: KRAS 1–180 lacking C-terminus and prenyl group, 10 μM compound
T5 construct: (His)6-TEV (N, cleaved yes); made in house; host or cells: E. coli BL21 (DE3), co-transformed with BirA

full-length KRAS = biological target: T6, full-length KRAS (Homo sapiens, UniProt P01116, G12V); experiment: BLI control with full-length KRAS in the absence of PS; type: binding
T6 construct: Avi-tag-(Gly)8 –KRAS^G12V (2–188) was cloned into the pFastBac1 vector; made in house; host or cells: Tn5 insect cells, co-infected with BirA virus
Method: Determination of Kds was performed on the Octet RED platform, according to the manufacturer's recommendations in their application note on small molecule analysis. The prenylated KRAS peptide containing the farnesyl group attached to the terminal cysteine (biotin-[…](farnesyl)-OCH3) was obtained from AnaSpec (Fremont, California). Proteins were obtained as described above. […] The protein was attached to SuperStreptavidin biosensors (ForteBio 18–5057) via Avi-tagged-KRAS G12V:[…], followed by the KRAS protein to a final concentration of 40nM. After incubation for 1h at RT, the protein was loaded into a 96-well plate (Greiner 655209), and loaded a BLI response of 3-4nm. […] A reference sensor was run to remove systematic drift, and a second set of SuperStreptavidin biosensors blocked with biocytin was examined to remove systematic optical interferences, and to check for non-specific binding of compounds to the biosensor. Kds were determined using the ForteBio analysis software tool, which determines Kd from the steady-state plot, or from the determination of the kinetic constants kon and koff. […] After establishing reproducibility with compound 3, all other compounds were measured in singleton.

[6] = biological target: T7, non-prenylated GDP-KRAS^G12V (Homo sapiens, UniProt P01116, G12V); experiment: HSQC NMR binding / titration; settings: non-processed GDP-loaded KRAS^G12V (1–169) in aqueous buffer, no PS; estimated from titration
T7 construct: HSQC experiments were run with ^15N-labeled and GDP-loaded K-RAS^G12V (1–169)
Method: (§2) The buffer contained 20mM Tris HCl, pH8.0, 50mM NaCl, 1mM MgCl2, 2mM DTT. […] 500 fragments from a fragment library [53] were screened by T1ρ ligand observation experiments, followed by protein-observed HSQC experiments. ^31P NMR spectra were acquired at 278°K on a Bruker AV400 spectrometer operating at 161.6 MHz ^31P frequency, equipped with a BBO probe.

[7] = biological target: T8, non-prenylated GMPPNP-loaded KRAS^G12V (Homo sapiens, UniProt P01116, G12V); experiment: 31P-NMR conformational state of KRAS; settings: KRAS^G12V 5 mg/ml; 1 mM compound 2 or 0.5 mM CRAF-RBD
T8 construct: HSQC experiments were run with ^15N-labeled and GDP-loaded K-RAS^G12V (1–169)
Method: as §2

[8] = GTPγS-loaded full-length prenylated KRAS^G12V in PS, geomean, read-out: Coupled assay IC50
[9] = BRAF^V600E, no KRAS, geomean, read-out: Counter-screen IC50
[10] = full-length prenylated GTPγS-loaded KRAS^G12V, PS liposomes, read-out: Kd BLI
[11] = non-processed GDP-loaded KRAS in aqueous buffer, read-out: Kd HSQC

Row | Structure (SMILES) | IC50 [1, 8] [µM] | IC50 (full length BRAF^V600E; [9]) [µM] | EC50 (SW1990 cells) [µM] | effect on pAKT and pERK (cellular activity) (SW1990 cells (KRAS^G12D)) | activity in the coupled assay [1] | binding in BLI studies [2] | Kd [2, 10] [µM] | binding to prenylated peptide in BLI [3] | activity in the counter-screen (full length BRAF^V600E) | Kd [4, 11] [µM] | effect on pAKT levels (A375 cells (BRAF^V600E)) | other results
1 | CC(C)NCC(O)COc1cccc2cc[nH]c12 (centres unmarked) [Compound 1] | 87 ± 22 | > 250 | > 30 | inactive at the concentrations tested |  |  |  |  |  |  |  | 
2 | O=C(N[C@H]1CCN(Cc2ccc(O)nc2)C1)c1c[nH]c2ccc(Cl)cc12 [Compound 4] | 49 | 115 | > 30 | inactive at the concentrations tested | negligible biochemical activity | did not bind | > 10 | did not bind |  |  |  | 
3 | O=C(Nc1ccc2nc(Cc3c[nH]c4ccccc34)[nH]c2c1)C1CCCN1 (centres unmarked) [Compound 6, reference compound] |  | 134 | > 30 | inactive in cells | negligible activity |  |  |  | negligible activity | 340 |  | 
4 | Cc1[nH]c2cc(Cl)cc(Cl)c2c1CCN [Compound 5, reference compound] |  |  | 18 | double-digit μM potency in cells |  |  |  |  |  | 1100 |  | IC50 [1]: 7 µM; IC50 (full length BRAF^V600E): 29 µM; Kd [2]: 34 µM; Kd ([4]; absence of a lipid environment, read-out: published Kd to truncated GDP-loaded KRAS): 1000 µM; potency in cell-based assays [5]: 16 µM
5 | Clc1ccc(C[C@@H]2C[C@@H](NCc3c[nH]c4ccccc34)CCN2)cc1 [Compound 3] | 1.2 | > 25 | 1.2 | dose-dependent decreases in phosphorylation of both of the pathway markers |  |  | 2.6 ± 0.8 | binds to the prenylated peptide in a concentration-dependent manner | minimal activity was observed |  | unexpected pattern of modulation | binding in BLI (KRAS construct 1–180): minimal binding was observed; binding in BLI (full-length KRAS; 10 μM compound): some binding was observed; binding in BLI (full-length KRAS; up to 3.3 μM compound): no binding was observed
6 | O=C(N[C@H]1CCN[C@H](Cc2ccc(Cl)cc2)C1)c1c[nH]c2ccc(Br)cc12 [Compound 2] | 0.8 ± 0.7 | 85 ± 47 | 2.7 ± 1.4 | dose-dependent decreases in phosphorylation of both of the pathway markers |  | minor non-specific binding | 0.8 |  | minimal activity was observed |  | unexpected pattern of modulation | Kd [6]: 690 µM; γ-phosphate population (conformational state) by 31P-NMR [7]: shift to a single inactive population
